Assay results taken from US20250129430A1, “HIGH ATP-AFFINITY PROTEIN AS THERAPEUTIC TARGET FOR INTRACTABLE CANCER MOLECULAR SUBTYPES AND INHIBITOR THEREOF” (VeraVerse Co., Ltd., priority 2021, published 2025).
Counter-ions that a name gives are not always drawn.

How the values were obtained:
Assay in all cases: Cell viability drug screen, 12-point dose-response AUC
Format in all cases: cell-based, human
[1] = test system: FU97; design: Average Area Under the Viability Curve (AUC), AUC norm value: scale not given here; conditions: FU97 cells; 72 hours
How it was run: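 Trapezoidal AUC of a 12-point, DMSO-normalized dose-response curve. Luminescent viability was measured after 72 h of exposure at 37° C to half-log serial dilutions (0.5% DMSO control), dosed 24 h after plating FU97 cells at 5×10^3 per well.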

[2] = test system: YCC3; conditions: YCC3 cells; 72 hours
How it was run: (§1)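 AUC values represent the area under DMSO-normalized 12-point curves, computed by trapezoid rule and averaged over repeated experiments. Each EMT-type gastric line was exposed to half-log serial concentrations for 72 h at 37 °C, and viability was measured with a Glo luminescence kit.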

[3] = test system: SNU1967; conditions: SNU1967 cells; 72 hours
How it was run: as §1

[4] = test system: NCC20; conditions: NCC20 cells; 72 hours
How it was run: as §1

[5] = test system: SNU16; conditions: SNU16 cells; 72 hours
How it was run: as §1

[6] = test system: AGS; conditions: AGS cells (non-SEM subtype); 72 hours
How it was run: (§2)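 Dose-response AUC reflects 72 h drug exposure of gastric cancer cells in a 12-point, half-log format, with viability read by luminescence and normalized to DMSO (0.5%).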

[7] = test system: Hs746T; conditions: Hs746T cells (SEM subtype); 72 hours
How it was run: as §1

[8] = test system: SK4; conditions: SK4 cells (SEM subtype); 72 hours
How it was run: as §1

[9] = test system: MKN28; conditions: MKN28 cells; 72 hours
How it was run: as §1

[10] = test system: SNU216; conditions: SNU216 cells (non-SEM subtype); 72 hours
How it was run: as §2

[11] = test system: YCC11; conditions: YCC11 cells (SEM subtype); 72 hours
How it was run: as §1

[12] = test system: NCI_N87; conditions: NCI_N87 cells; 72 hours
How it was run: as §1

[13] = test system: NCC59; conditions: NCC59 cells; 72 hours
How it was run: as §1

[14] = test system: SNU1; conditions: SNU1 cells; 72 hours
How it was run: as §1

[15] = test system: KATO3; conditions: KATO3 cells; 72 hours
How it was run: as §1

[16] = test system: MKN45; conditions: MKN45 cells (non-SEM subtype); 72 hours
How it was run: as §2

[17] = test system: SNU601; conditions: SNU601 cells; 72 hours
How it was run: as §1

[18] = test system: NCC19; conditions: NCC19 cells; 72 hours
How it was run: as §1

[19] = test system: MKN1; conditions: MKN1 cells; 72 hours
How it was run: as §1

[20] = test system: OCUM1; conditions: OCUM1 cells; 72 hours
How it was run: as §1

[21] = test system: SNU1750; conditions: SNU1750 cells (SEM subtype); 72 hours
How it was run: as §1

[22] = test system: YCC2; conditions: YCC2 cells; 72 hours
How it was run: as §1

[23] = test system: SNU484; conditions: SNU484 cells (SEM subtype); 72 hours
How it was run: as §1

[24] = test system: SNU719; conditions: SNU719 cells; 72 hours
How it was run: as §2

[25] = test system: SNU620; conditions: SNU620 cells; 72 hours
How it was run: as §1

[26] = test system: SNU638; conditions: SNU638 cells; 72 hours
How it was run: as §1

[27] = test system: MKN74; conditions: MKN74 cells; 72 hours
How it was run: as §2

[28] = test system: SNU668; conditions: SNU668 cells (SEM subtype); 72 hours
How it was run: as §1

[29] = test system: NCC24; conditions: NCC24 cells; 72 hours
How it was run: as §1

For `COc1cccc2c1C(=O)c1c(O)c3c(c(O)c1C2=O)C[C@@](O)(C(C)=O)C[C@@H]3O[C@H]1C[C@H](N)[C@H](O)[C@H](C)O1` [Daunorubicin HCl (Daunomycin HCl), Daunorubicin HCl], the “Average Area Under the Viability Curve (AUC), AUC norm value” (shortened to “Average Area Under the Viability Curve”) [1] was 0.3965, the “Average Area Under the Viability Curve” value [2] was 2.699 and the “Average Area Under the Viability Curve” value [3] was −1.481. The “Average Area Under the Viability Curve” value [4] was −0.7736, the “Average Area Under the Viability Curve” value [5] was −1.065 and the “Average Area Under the Viability Curve” value [6] was −1.2278. The “Average Area Under the Viability Curve” value [7] was 0.1484, the “Average Area Under the Viability Curve” value [8] was 0 and the “Average Area Under the Viability Curve” value [9] was 2.146. For the same compound, the “Average Area Under the Viability Curve” value [10] was 0.4507, the “Average Area Under the Viability Curve” value [11] was −1.742 and the “Average Area Under the Viability Curve” value [12] was 4.5372. The “Average Area Under the Viability Curve” value [13] was −0.5161, the “Average Area Under the Viability Curve” value [14] was −0.7605 and the “Average Area Under the Viability Curve” value [15] was 6.288. For the same compound, the “Average Area Under the Viability Curve” value [16] was 2.949, the “Average Area Under the Viability Curve” value [17] was 1.207 and the “Average Area Under the Viability Curve” value [18] was 0.9357. The “Average Area Under the Viability Curve” value [19] was −0.2877, the “Average Area Under the Viability Curve” value [20] was 0.7066 and the “Average Area Under the Viability Curve” value [21] was −0.7795. The “Average Area Under the Viability Curve” value [22] was 1.127, the “Average Area Under the Viability Curve” value [23] was −1.299 and the “Average Area Under the Viability Curve” value [24] was 3.416. The “Average Area Under the Viability Curve” value [25] was −1.239, the “Average Area Under the Viability Curve” value [26] was −1.229 and the “Average Area Under the Viability Curve” value [27] was 1.215. For the same compound, the “Average Area Under the Viability Curve” value [28] was −0.9142 and the “Average Area Under the Viability Curve” value [29] was −0.8801.

With `CC[C@@]1(O)C(=O)OCc2c1cc1n(c2=O)Cc2cc3c(CN(C)C)c(O)ccc3nc2-1` [Topotecan HCI, Topotecan HCl] the “Average Area Under the Viability Curve” value [1] was −0.8445, the “Average Area Under the Viability Curve” value [2] was 1.923 and the “Average Area Under the Viability Curve” value [3] was −2.648. The “Average Area Under the Viability Curve” value [4] was −2.367, the “Average Area Under the Viability Curve” value [5] was −0.5292 and the “Average Area Under the Viability Curve” value [6] was −2.159. For the same compound, the “Average Area Under the Viability Curve” value [7] was 0.4587, the “Average Area Under the Viability Curve” value [8] was −0.4515 and the “Average Area Under the Viability Curve” value [9] was 1.259. The “Average Area Under the Viability Curve” value [10] was 1.123, the “Average Area Under the Viability Curve” value [11] was −0.573 and the “Average Area Under the Viability Curve” value [12] was 2.857. For the same compound, the “Average Area Under the Viability Curve” value [13] was 1.957, the “Average Area Under the Viability Curve” value [14] was −0.6163 and the “Average Area Under the Viability Curve” value [15] was 5.01. The “Average Area Under the Viability Curve” value [16] was 1.195, the “Average Area Under the Viability Curve” value [17] was −0.5589 and the “Average Area Under the Viability Curve” value [18] was 2.896. For the same compound, the “Average Area Under the Viability Curve” value [19] was −0.9954, the “Average Area Under the Viability Curve” value [20] was −1.681 and the “Average Area Under the Viability Curve” value [21] was 0.2818. For the same compound, the “Average Area Under the Viability Curve” value [22] was 0.1906, the “Average Area Under the Viability Curve” value [23] was 1.128 and the “Average Area Under the Viability Curve” value [24] was 3.069. The “Average Area Under the Viability Curve” value [25] was −0.7611, the “Average Area Under the Viability Curve” value [26] was −0.7133 and the “Average Area Under the Viability Curve” value [27] was 0. For the same compound, the “Average Area Under the Viability Curve” value [28] was −1.128 and the “Average Area Under the Viability Curve” value [29] was 0.0033.

For `CN(C)Cc1c(C(=O)NCCOc2ccc(C(=O)NO)cc2)oc2ccccc12` [PCI-24781], the “Average Area Under the Viability Curve” value [1] was −1.786, the “Average Area Under the Viability Curve” value [2] was 0.8426 and the “Average Area Under the Viability Curve” value [3] was −1.126. The “Average Area Under the Viability Curve” value [4] was −1.065, the “Average Area Under the Viability Curve” value [5] was −1.233 and the “Average Area Under the Viability Curve” value [6] was −1.161. The “Average Area Under the Viability Curve” value [7] was −0.03183, the “Average Area Under the Viability Curve” value [8] was 0.451 and the “Average Area Under the Viability Curve” value [9] was −0.378. The “Average Area Under the Viability Curve” value [10] was 0.03042, the “Average Area Under the Viability Curve” value [11] was −0.09531 and the “Average Area Under the Viability Curve” value [12] was −0.3803. The “Average Area Under the Viability Curve” value [13] was 0.9766, the “Average Area Under the Viability Curve” value [14] was 0.3429 and the “Average Area Under the Viability Curve” value [15] was −0.2111. For the same compound, the “Average Area Under the Viability Curve” value [16] was 2.259, the “Average Area Under the Viability Curve” value [17] was 0.6141 and the “Average Area Under the Viability Curve” value [18] was 0.3282. For the same compound, the “Average Area Under the Viability Curve” value [19] was 0.6581, the “Average Area Under the Viability Curve” value [20] was 0 and the “Average Area Under the Viability Curve” value [21] was −1.499. The “Average Area Under the Viability Curve” value [22] was 0.00064, the “Average Area Under the Viability Curve” value [23] was 0.1533 and the “Average Area Under the Viability Curve” value [24] was 1.428. The “Average Area Under the Viability Curve” value [25] was −0.6966, the “Average Area Under the Viability Curve” value [26] was −0.06055 and the “Average Area Under the Viability Curve” value [27] was 0.2128. The “Average Area Under the Viability Curve” value [28] was 0.53 and the “Average Area Under the Viability Curve” value [29] was −0.2766.

For `Cn1cc(CNCC2CCN(c3ncc(C(=O)NO)cn3)CC2)c2ccccc21` [JNJ-26481585], the “Average Area Under the Viability Curve” value [1] was −0.6324, the “Average Area Under the Viability Curve” value [2] was 0.3561 and the “Average Area Under the Viability Curve” value [3] was −1.0365. The “Average Area Under the Viability Curve” value [4] was −1.396, the “Average Area Under the Viability Curve” value [5] was −0.7883 and the “Average Area Under the Viability Curve” value [6] was −1.073. The “Average Area Under the Viability Curve” value [7] was 0.2906, the “Average Area Under the Viability Curve” value [8] was −0.3258 and the “Average Area Under the Viability Curve” value [9] was −0.5312. The “Average Area Under the Viability Curve” value [10] was 0.3424, the “Average Area Under the Viability Curve” value [11] was 0.08841 and the “Average Area Under the Viability Curve” value [12] was −0.2649. For the same compound, the “Average Area Under the Viability Curve” value [13] was 3.687, the “Average Area Under the Viability Curve” value [14] was −0.984 and the “Average Area Under the Viability Curve” value [15] was 0.3482. The “Average Area Under the Viability Curve” value [16] was 2.743, the “Average Area Under the Viability Curve” value [17] was 1.501 and the “Average Area Under the Viability Curve” value [18] was 0.3912. For the same compound, the “Average Area Under the Viability Curve” value [19] was 0.558, the “Average Area Under the Viability Curve” value [20] was 0.02955 and the “Average Area Under the Viability Curve” value [21] was −0.8596. For the same compound, the “Average Area Under the Viability Curve” value [22] was −0.1018, the “Average Area Under the Viability Curve” value [23] was 0 and the “Average Area Under the Viability Curve” value [24] was 3.527. The “Average Area Under the Viability Curve” value [25] was −1.2467, the “Average Area Under the Viability Curve” value [26] was 0.1995 and the “Average Area Under the Viability Curve” value [27] was −0.06428. For the same compound, the “Average Area Under the Viability Curve” value [28] was 1.486 and the “Average Area Under the Viability Curve” value [29] was −1.592.
